{
  "source": "patent US20090281111A1",
  "about": "(Fabre-Kramer Pharmaceuticals, Inc., priority 2008, published 2009)",
  "key": {"[1]": {"test": "3-OH gepirone concentrations in plasma after administration of gepirone", "assay_type": "in vivo", "conditions": "human subjects administered a dose of gepirone, FIG. 2", "protocol": "“Time (H)” represents time after administration.\nEach sample corresponds to a 0.5 ml plasma sample, extracted with 6 ml of (2:1) (v/v) hexane:chloroform for 1 hour. After separation by centrifuge, the organic layer is transferred to a 10 ml conical tube and 90 ul of 1% formic acid is added. The tube is vortexed for 10 minutes and centrifuged for 5 minutes. About 80 ul of the formic acid layer is transferred into injection vials for HPLC/MS analysis."}, "[2]": {"molecular_target": "T1, 5-HT1A receptor (Homo sapiens, UniProt P08908)", "T1 sequence (P08908 1-422)": "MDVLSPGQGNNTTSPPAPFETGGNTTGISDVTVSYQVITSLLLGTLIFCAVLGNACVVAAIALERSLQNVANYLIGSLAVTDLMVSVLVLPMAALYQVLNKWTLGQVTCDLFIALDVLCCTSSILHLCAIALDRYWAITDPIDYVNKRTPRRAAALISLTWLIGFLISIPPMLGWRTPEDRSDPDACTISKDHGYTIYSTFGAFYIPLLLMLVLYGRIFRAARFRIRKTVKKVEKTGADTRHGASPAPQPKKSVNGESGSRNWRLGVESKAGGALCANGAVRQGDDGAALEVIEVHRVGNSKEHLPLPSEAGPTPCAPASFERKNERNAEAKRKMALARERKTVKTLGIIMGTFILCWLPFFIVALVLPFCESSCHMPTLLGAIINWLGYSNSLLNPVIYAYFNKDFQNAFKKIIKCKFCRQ", "conditions": "cited from earlier work"}, "[3]": {"system": "dopaminergic receptors", "conditions": "cited from earlier work"}, "[4]": {"system": "alpha-adrenergic receptors", "conditions": "Alpha 2A, Alpha 2B, Alpha 2C tested; cited from earlier work"}, "[5]": {"molecular_target": "T2, Alpha 2C receptor (Homo sapiens, UniProt P18825)", "T2 sequence (P18825 1-462)": "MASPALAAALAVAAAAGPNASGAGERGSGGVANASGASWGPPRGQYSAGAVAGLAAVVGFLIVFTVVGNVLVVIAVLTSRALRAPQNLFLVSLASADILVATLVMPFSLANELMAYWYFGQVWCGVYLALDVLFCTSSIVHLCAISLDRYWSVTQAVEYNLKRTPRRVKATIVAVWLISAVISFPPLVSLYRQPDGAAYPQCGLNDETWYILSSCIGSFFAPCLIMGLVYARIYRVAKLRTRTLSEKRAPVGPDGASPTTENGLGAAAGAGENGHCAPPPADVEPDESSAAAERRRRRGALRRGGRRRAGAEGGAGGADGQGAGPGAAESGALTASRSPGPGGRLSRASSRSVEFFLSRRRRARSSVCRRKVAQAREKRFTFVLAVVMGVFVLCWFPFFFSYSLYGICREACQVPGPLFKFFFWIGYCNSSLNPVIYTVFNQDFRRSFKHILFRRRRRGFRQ", "conditions": "cited from earlier work"}, "[6]": {"conditions": "cited from earlier work; for half-life: in vivo"}, "[7]": {"molecular_target": "5-HT7 receptor (Homo sapiens, UniProt P34969)", "sequence (P34969 whole entry)": "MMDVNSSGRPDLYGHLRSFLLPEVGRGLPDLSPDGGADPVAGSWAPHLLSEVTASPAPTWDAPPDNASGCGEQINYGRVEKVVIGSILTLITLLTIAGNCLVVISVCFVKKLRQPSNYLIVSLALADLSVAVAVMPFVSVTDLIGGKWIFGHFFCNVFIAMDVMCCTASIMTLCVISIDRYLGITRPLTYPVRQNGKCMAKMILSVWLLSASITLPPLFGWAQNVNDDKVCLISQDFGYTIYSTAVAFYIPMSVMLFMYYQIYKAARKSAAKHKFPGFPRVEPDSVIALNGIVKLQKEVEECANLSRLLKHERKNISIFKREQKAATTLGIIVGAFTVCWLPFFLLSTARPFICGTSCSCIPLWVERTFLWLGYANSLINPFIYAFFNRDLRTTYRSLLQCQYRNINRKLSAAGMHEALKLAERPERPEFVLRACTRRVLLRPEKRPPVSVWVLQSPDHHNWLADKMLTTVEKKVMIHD", "conditions": "compared with 3-OH gepirone; cited from earlier work"}, "[8]": {"molecular_target": "5-HT2A receptor (Homo sapiens, UniProt P28223)", "sequence (P28223 whole entry)": "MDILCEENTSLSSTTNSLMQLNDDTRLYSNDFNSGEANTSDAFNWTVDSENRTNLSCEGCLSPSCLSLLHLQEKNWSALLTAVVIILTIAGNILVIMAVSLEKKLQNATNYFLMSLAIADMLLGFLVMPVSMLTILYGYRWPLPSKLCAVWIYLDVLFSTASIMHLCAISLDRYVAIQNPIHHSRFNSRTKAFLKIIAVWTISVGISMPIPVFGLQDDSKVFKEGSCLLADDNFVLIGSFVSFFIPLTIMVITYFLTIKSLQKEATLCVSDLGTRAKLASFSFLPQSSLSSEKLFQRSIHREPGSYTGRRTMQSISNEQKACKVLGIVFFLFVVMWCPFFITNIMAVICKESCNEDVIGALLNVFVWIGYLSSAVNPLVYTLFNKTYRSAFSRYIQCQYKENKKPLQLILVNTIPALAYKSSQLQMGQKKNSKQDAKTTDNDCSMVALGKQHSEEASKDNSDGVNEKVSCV", "conditions": "compared with 3-OH gepirone; cited from earlier work"}},
  "data": [
    {"smiles": "CC1(C)CC(=O)N(CCCCN2CCN(c3ncccn3)CC2)C(=O)C1O", "note": "(centres unmarked) [3-OH gepirone, 4,4,-dimethyl-3-hydroxy-1-[4-[4-(2-pyrimidinyl)-1-piperazinyl]butyl]-2,6-piperidinedione]", "values": [
      {"measurement": "plasma levels of 3-OH gepirone over time", "setting": "[1]", "value": "available quickly and persists in the plasma for extended periods of time"},
      {"measurement": "selectivity among the serotonergic receptor subtypes", "setting": "[2]", "value": "highly selective for the 5-HT1A receptor"},
      {"measurement": "dopaminergic binding", "setting": "[3]", "value": "insignificant dopaminergic binding"},
      {"measurement": "affinity at alpha-adrenergic receptors", "setting": "[4]", "value": "did not display significant affinity"},
      {"measurement": "binding at the Alpha 2C receptor", "setting": "[5]", "value": "weak binding"}
    ]},
    {"smiles": "O=C1CC2(CCCC2)CC(=O)N1CCCCN1CCN(c2ncccn2)CC1", "note": "[buspirone]", "values": [
      {"measurement": "half-life", "setting": "[6]", "value": "very short"},
      {"measurement": "interaction with the 5-HT7 receptor", "setting": "[7]", "value": "much more specifically and at lower concentrations than does 3-OH gepirone"}
    ]},
    {"smiles": "CC1(C)CC(=O)N(CCCCN2CCN(c3ncccn3)CC2)C(=O)C1", "note": "[gepirone, 4-dimethyl-1-[4-[4-(2-pyrimidinyl)-1-piperazinyl]butyl]-2,6-piperidinedione]", "values": [
      {"measurement": "bioavailability", "setting": "[6]; delivered orally", "value": "14-18%"},
      {"measurement": "half-life", "setting": "[6]", "value": "very short"},
      {"measurement": "interaction with the 5-HT7 receptor", "setting": "[7]", "value": "much more specifically and at lower concentrations than does 3-OH gepirone"},
      {"measurement": "interaction with the 5-HT2A receptor", "setting": "[8]", "value": "much more specifically and at lower concentrations than does 3-OH gepirone"}
    ]}
  ]
}
